These results are taken from US9518107B2, “Pharmaceutical compositions containing polypeptides derived from α-1 antitrypsin and methods of use thereof” (YISSUM RESEARCH DEVELOPMENT COMPANY OF THE HEBREW …, priority 2010, dated 2016).

The subject of one assay is Male CD1 mice. Description: Carrageenan-induced hind paw swelling. It is filed as in vivo. The settings on record: UBE injected thirty minutes before carrageenan; swelling after 3 hours versus prior to carrageenan; FIG. 1. The protocol: Male CD1 mice were intravenously (i.v.) injected with the indicated doses of the UBE polypeptide having the sequence […] (SEQ ID NO:2). Thirty minutes thereafter, each animal was injected with carrageenan (50 μl of 3 mg/ml into each hindpaw). The animals were evaluated for the difference between the degree of swelling (mm) after 3 hours and prior to carrageenan injection.

Another assay relates to female MRL/lpr mice. The assay can be described thus: Spontaneous lupus-like syndrome in MRL/lpr mice (Systemic Lupus Erythematosus model). Format: in vivo. As to the method:
MRL/lpr mice develop a lupus-like syndrome spontaneously. UBE (SEQ ID NO:2) (1 μg/kg) was administered to female MRL/lpr mice thrice a week, starting at age of 12 weeks. Urine was obtained by spontaneous urination and the levels of protein (mg/dl) and erythrocytes (cells/dl) in the urine were evaluated throughout the treatment period (4 weeks) using commercial sticks.
In order to determine the levels of anti-dsDNA antibodies, blood was obtained by cardiac puncture of the MRL/lpr mice after 4 weeks of UBE treatment, and the serum levels of anti-dsDNA antibodies were evaluated using a commercial ELISA kit.
Serum levels of anti-dsDNA antibodies were determined by ELISA with the aid of a commercial kit (Euroimmun, Lubeck, Germany) following the manufacturer's instructions and detection antibodies were purchased for use with same (Bethyl Laboratories, Montgomery, Tex., USA).
Quantitative histopathology analysis of the kidneys was also performed. The kidneys of the mice after 4 weeks of UBE treatment were removed, fixed in formalin, sliced, and stained by H&E and by periodic acid […] stain. Representative histophathologies of the glomeruli and tubulointerstitial areas in control versus UBE treated mice is shown FIGS. 7C and 7D, versus 7E and 7F at 2× and 20×, respectively. The quantitative histopathology analysis is presented in FIG. 7A and FIG. 7B, respectively.
To evaluate the effect of UBE on lymphocyte function in MRL/lpr mice, peripheral lymph nodes and spleen cells were isolated from the control and UBE-treated mice and subjected to FACS analysis probing for CD4, CD8 and B220 marker expression (FIG. 8). Peripheral lymph node cells were positively selected for CD3 expression and the percent of CD3+ cells, which were negative for CD4− and CD8− expression was evaluated. Representative results from control and UBE treated animals are shown in FIGS. 8A and 8B, respectively. […] Spleen cells were similarly evaluated and representative results from control and UBE treated animals are shown in FIGS. 8C and 8D, respectively.
In parallel, peripheral lymph node cells were positively selected for B220+ expression. Representative results from control and UBE treated animals are shown in FIGS. 8G and 8H, respectively. […] Spleen cells were similarly evaluated and representative results from control and UBE treated animals are shown in FIGS. 8I and 8J, respectively.

Where [1] appears, read: after 4 weeks of UBE treatment, 1 μg/kg, FIG. 7.

“SMPPIVRFDHPFLFIIFEEHTQSPLFVGKVVDPTHK (listed as Mus musculus) [UBE, 36-mer peptide corresponding to residues 378-413 of Mus musculus alpha-1-antitrypsin (serpin a1c)]”: the “carrageenan-induced inflammation (hind paw swelling)” value in the assay with Male CD1 mice is “significant reduction”. Also, the “proteinuria (urinary protein)” value in the assay on female MRL/lpr mice (1 μg/kg thrice a week from age of 12 weeks, 4 weeks, FIG. 4) is given as “significant reduction”. Besides, the urinary microhematuria result with female MRL/lpr mice (1 μg/kg thrice a week from age of 12 weeks, 4 weeks, FIG. 5) was “significant reduction”. Further, the “anti-dsDNA antibodies in the blood (serum, ELISA)” value in the assay with female MRL/lpr mice (after 4 weeks of UBE treatment, 1 μg/kg, FIG. 6) is “significant reduction”. In the assay with female MRL/lpr mice (setting [1]), the “pathological score of the glomeruli (kidney histopathology)” value was “significant reduction” and the “pathological score of the tubulointerstitial areas (kidney histopathology)” value is “significant reduction”. Moreover, the “percent of B220+ cells, FACS” value with female MRL/lpr mice (peripheral lymph nodes) is on record as “dramatically reduced”. In the assay with female MRL/lpr mice (peripheral lymph nodes, FIG. 8E), the “double negative CD4−CD8− cells (expressed as percent CD3+), FACS” value is listed as “dramatically reduced”. In the assay with female MRL/lpr mice (spleen cells), the “percent of B220+ cells, FACS” value is given as “dramatically reduced”. Moreover, the “double negative CD4−CD8− cells, FACS” value in the assay with female MRL/lpr mice (spleen cells, FIG. 8F) is listed as “dramatically reduced”.
